The record followed here is patent US11787780B2 (CORCEPT THERAPEUTICS INCORPORATED, priority 2020, dated 2023).

A word on the IC50: it is the concentration at which inhibition is half-maximal. One may read the Ki as the equilibrium dissociation constant of an inhibitor or competing ligand from its target. Read a low Ki as a stronger hold on the target.

For assay [1], the target named is glucocorticoid receptor (GR) recombinant ligand binding domain (LBD) (Homo sapiens (Human), UniProt P04150). Description: GR binding fluorescence polarisation (FP) assay. As to conditions: displacement of fluorescently tagged ligand. On the procedure: Binding of test compounds to the glucocorticoid receptor (GR) is determined using a fluorescence polarisation (FP) assay utilising a recombinant ligand binding domain (LBD) of GR. The test compounds are assessed by their ability to displace a fluorescently tagged ligand and detection of the resulting decrease in fluorescence polarisation.
glucocorticoid receptor (GR) recombinant ligand binding domain (LBD), sequence (P04150 524-758): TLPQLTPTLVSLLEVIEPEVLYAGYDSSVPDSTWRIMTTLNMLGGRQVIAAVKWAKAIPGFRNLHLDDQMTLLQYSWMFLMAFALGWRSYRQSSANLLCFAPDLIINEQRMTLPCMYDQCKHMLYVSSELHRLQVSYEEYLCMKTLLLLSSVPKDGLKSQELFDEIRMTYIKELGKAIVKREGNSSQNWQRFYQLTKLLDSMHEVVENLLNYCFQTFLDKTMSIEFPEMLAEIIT
A general note: In fluorescence polarisation assays a small probe gives low polarisation when free and higher when bound to something large.

Assay [2] has as its system induction of TAT by dexamethasone in HepG2 cells. Nature of the assay: Hep G2 TAT assay (inhibition of dexamethasone-induced TAT). It counts as cell-based, human. The conditions noted are these: challenge of 100 nM dexamethasone, IC50 converted to Ki by Cheng and Prusoff equation. As to the method: Glucocorticoid mediated activation of TAT occurs by transactivation of glucocorticoid response elements in the TAT promoter by glucocorticoid receptor-agonist complex. The following protocol describes an assay for measuring induction of TAT by dexamethasone in HepG2 cells (a human liver hepatocellular carcinoma cell line; ECACC, UK).
TAT activity was measured as outlined in the literature by A. Ah et al., J. Med. Chem., 2004, 47, 2441-2452.
HepG2 cells were cultured using MEME media supplemented with 10% (v/v) foetal bovine serum; 2 mM L-glutamine and 1% (v/v) NEAA at 37° C., 5%/95% (v/v) CO2/air. The HepG2 cells were counted and adjusted to yield a density of 0.125×10^6 cells/ml in RPMI 1640 without phenol red, 10% (v/v) charcoal stripped FBS, 2 mM L-glutamine and seeded at 25,000 cells/well in 200 μl into 96 well, sterile, tissue culture micro titre plates, and incubated at 37° C., 5% CO2 for 24 hours
Growth media was removed and replaced with assay media {RPMI 1640 without phenol red, 2 mM L-glutamine+10 μM forskolin}. Test compounds were screened against a challenge of 100 nM dexamethasone. Compounds were serially half log diluted in 100% (v/v) dimethylsulphoxide from a 10 mM stock.
Test compounds were pre-incubated with cells in micro-titre plates for 30 minutes at 37° C., 5/95 (v/v) CO2/air, before the addition of 100 nM dexamethasone and then subsequently for 20 hours to allow optimal TAT induction.
HepG2 cells were then lysed with 30 μl of cell lysis buffer containing a protease inhibitor cocktail for 15 minutes at 4° C. […] After 2 hours incubation at 37° C. the reaction was terminated by the addition of 15 μl of 10M aqueous potassium hydroxide solution, and the plates incubated for a further 30 minutes at 37° C. The TAT activity product was measured by absorbance at λ 340 nm.
[compound] and fitting the data to a 4 parameter logistic equation. IC50 values were converted to Ki (equilibrium dissociation constant) using the Cheng and Prusoff equation, assuming the antagonists were competitive inhibitors with respect to dexamethasone.

As for `Cc1cc2c(cnn2-c2cc(Cl)c(=O)n(C)c2)cc1C1(Cc2ccccc2)CCN(S(=O)(=O)c2cnn(C)n2)C1` (stereo not shown) [Example 248, 5-(5-(3-benzyl-1-((2-methyl-2H-1,2,3-triazol-4-yl)sulfonyl)pyrrolidin-3-yl)-6-methyl-1H-indazol-1-yl)-3-chloro-1-methylpyridin-2(1H)-one], the half-maximal inhibitory concentration (IC50) in assay [1] was 0.055 µM. In addition, the Ki in assay [2] stood at 0.26 µM. For `Cc1cc2c(cnn2-c2ccc(F)cc2)cc1N1CCC2CN(S(C)(=O)=O)CC21` (stereo not shown) [Example 90], the IC50 in assay [1] came out at 0.045 µM. For the same compound, the Ki in assay [2] was found to be 0.343 µM. Consider `CCCn1cc(S(=O)(=O)NC2(C)CCN(c3cc4cnn(-c5ccc(F)cc5)c4cc3C)C2)cn1` (stereo not shown) [Example 120], for which the IC50 in assay [1] was determined as 0.003 µM. The compound further displayed a Ki in assay [2] of 0.218 µM. Take `Cc1cc2c(cnn2-c2ccc(=O)n(C)c2)cc1C1(Cc2ccccc2)CCN(C(=O)C(C)(F)F)C1` (stereo not shown) [Example 328, 5-(5-(3-benzyl-1-(2,2-difluoropropanoyl)pyrrolidin-3-yl)-6-methyl-1H-indazol-1-yl)-1-methylpyridin-2(1H)-one]: the IC50 in assay [1] was 0.018 µM. Further, the inhibition constant Ki in assay [2] worked out at 0.11 µM. `Cc1cc2c(cnn2-c2ccc(=O)n(C)c2)cc1C1(Cc2ccccc2)CCN(S(=O)(=O)c2cncc(Cl)c2)C1` (stereo not shown) [Example 312, 5-(5-(3-benzyl-1-((5-chloropyridin-3-yl)sulfonyl)pyrrolidin-3-yl)-6-methyl-1H-indazol-1-yl)-1-methylpyridin-2(1H)-one]: in assay [1], the IC50 is 0.012 µM. Further, the affinity in assay [2], expressed as Ki, was 0.041 µM. Consider `Cc1cc2c(cnn2-c2ccc(=O)n(C)c2)cc1C1(Cc2ccccc2)CCN(C(=O)C2(C(F)(F)F)CC2)C1` (stereo not shown) [Example 330, 5-(5-(3-benzyl-1-(1-(trifluoromethyl)cyclopropane-1-carbonyl)pyrrolidin-3-yl)-6-methyl-1H-indazol-1-yl)-1-methylpyridin-2(1H)-one], for which the half-inhibitory concentration (IC50) in assay [1] is 0.016 µM. For the same compound, the inhibition constant Ki in assay [2] was determined as 0.2 µM.

With `COc1cc2c(cnn2-c2ccc(=O)n(C)c2)cc1C1(Cc2ccccc2)CCN(S(=O)(=O)C2CC2)C1` (stereo not shown) [Example 321], the concentration for half-maximal inhibition (IC50) in assay [1] worked out at 0.014 µM. In addition, the inhibition constant Ki in assay [2] was determined as 0.27 µM. `Cc1cc2c(cnn2-c2cc(F)c(=O)n(C)c2)cc1C1(Cc2ccccc2)CCN(S(=O)(=O)c2cnn(C)n2)C1` (stereo not shown) [Example 246, 5-(5-(3-benzyl-1-((2-methyl-2H-1,2,3-triazol-4-yl)sulfonyl)pyrrolidin-3-yl)-6-methyl-1H-indazol-1-yl)-3-fluoro-1-methylpyridin-2(1H)-one]: the IC50 in assay [1] is 0.0063 µM. In assay [2], this compound displayed a Ki of 0.049 µM.

On to `COc1cc2c(cnn2-c2ccc(F)cc2)cc1C1(Cc2ccccc2)CCN(S(=O)(=O)C2CC2)C1` (stereo not shown) [Example 166], for which, in assay [1], the concentration for half-maximal inhibition (IC50) worked out at 0.014 µM. In assay [2], this compound returned a Ki of 0.026 µM.

On to `Cn1cc(S(=O)(=O)N2CCC(Cc3ccccc3)(c3cc4cnn(-c5ccc(F)cc5)c4cc3Cl)C2)cn1` (stereo not shown) [Example 223, 5-(3-benzyl-1-((1-methyl-1H-pyrazol-4-yl)sulfonyl)pyrrolidin-3-yl)-6-chloro-1-(4-fluorophenyl)-1H-indazole], for which the concentration for half-maximal inhibition (IC50) in assay [1] stood at 0.014 µM. This compound also returned an inhibition constant (Ki) in assay [2] of 0.038 µM. For `COc1cc2c(cnn2-c2ccc(F)cc2)cc1C1(Cc2ccccc2)CCN(S(C)(=O)=O)C1` (stereo not shown) [Example 160], in assay [1], the IC50 came out at 0.005 µM. The compound further returned a Ki in assay [2] of 0.024 µM. Consider `Cc1cc2c(cnn2-c2ccn(C)c(=O)c2)cc1C1(Cc2ccccc2)CCN(S(=O)(=O)c2cnn(C)n2)C1` (stereo not shown) [Example 244, 4-(5-(3-benzyl-1-((2-methyl-2H-1,2,3-triazol-4-yl)sulfonyl)pyrrolidin-3-yl)-6-methyl-1H-indazol-1-yl)-1-methylpyridin-2(1H)-one], for which, in assay [2], the inhibition constant Ki is 0.84 µM. The compound `CS(=O)(=O)N1CCC(Cc2ccccc2)(c2ccc3c(cnn3-c3ccc(F)cc3)c2)C1` (stereo not shown) [Example 157] returned an inhibition constant (Ki) in assay [2] of 0.257 µM. `COc1ccccc1-c1noc(CCC(=O)N2CCC(Cc3ccccc3)(c3cc4cnn(-c5ccc(F)cc5)c4cc3C)C2)n1` (stereo not shown) [Example 201, 1-(3-benzyl-3-(1-(4-fluorophenyl)-6-methyl-1H-indazol-5-yl)pyrrolidin-1-yl)-3-(3-(2-methoxyphenyl)-1,2,4-oxadiazol-5-yl)propan-1-one] gave an inhibition constant (Ki) in assay [2] of 0.048 µM. As to `Cc1cc2c(cnn2-c2ccc(F)cc2)cc1C1(Cc2nccs2)CCN(S(C)(=O)=O)C1` (stereo not shown) [Example 187], the affinity in assay [2] corresponds to a Ki of 0.199 µM. On to `CCCn1cc(S(=O)(=O)N2CC=C(c3cc4cnn(-c5cccc(C(=O)NC6CCOC6)c5)c4cc3C)CC2)cn1` (stereo not shown) [Example 145], for which the inhibition constant (Ki) in assay [2] was 0.208 µM. `CCCn1cc(S(=O)(=O)N2CCC(Cc3ccccc3)(c3cc4cnn(C5CCC(=O)N(C)C5)c4cc3C)C2)cn1` (stereo not shown) [Example 273, 5-(5-(3-benzyl-1-((1-propyl-1H-pyrazol-4-yl)sulfonyl)pyrrolidin-3-yl)-6-methyl-1H-indazol-1-yl)-1-methylpiperidin-2-one] had an inhibition constant (Ki) in assay [2] of 0.28 µM. The same measure, in the same setting: the same measure for `CS(=O)(=O)N1CCC(Cc2ccccc2)(c2cc3cnn(-c4ccc(F)cc4)c3cc2F)C1` (stereo not shown) [Example 181]: 0.165 µM; for `Cc1cc(CC(=O)N2CCC(Cc3ccccc3)(c3cc4cnn(-c5ccc(F)cc5)c4cc3C)C2)on1` (stereo not shown) [Example 197, 1-(3-benzyl-3-(1-(4-fluorophenyl)-6-methyl-1H-indazol-5-yl)pyrrolidin-1-yl)-2-(3-methylisoxazol-5-yl)ethan-1-one]: 0.065 µM; for `CCCn1cc(S(=O)(=O)N2CCC(Cc3ccccc3)(c3cc4cnn(-c5ccc(F)cc5)c4cc3Cl)C2)cn1` (stereo not shown) [Example 224, 5-(3-benzyl-1-((1-propyl-1H-pyrazol-4-yl)sulfonyl)pyrrolidin-3-yl)-6-chloro-1-(4-fluorophenyl)-1H-indazole]: 0.021 µM. With `Cn1ncc(S(=O)(=O)N2CCC(Cc3ccccc3)(c3cc4cnn(-c5ccc(=O)n(C)c5)c4cc3Cl)C2)n1` (stereo not shown) [Example 277, 5-(5-(3-benzyl-1-((2-methyl-2H-1,2,3-triazol-4-yl)sulfonyl)pyrrolidin-3-yl)-6-chloro-1H-indazol-1-yl)-1-methylpyridin-2(1H)-one], the Ki in assay [2] amounted to 0.054 µM. In the case of `Cn1cc(S(=O)(=O)N2CCC(Cc3ccccc3)(c3ccc4c(cnn4-c4ccc(F)cc4)c3)C2)cn1` (stereo not shown) [Example 158], the inhibitory constant (Ki) in assay [2] came to 0.161 µM. The same measure, in the same setting: as for `Cc1cc2c(cnn2-c2ccc(F)cc2)cc1C1(Cc2cncs2)CCN(S(C)(=O)=O)C1` (stereo not shown) [Example 180], the figure is 0.809 µM; as for `COCCn1cc(S(=O)(=O)N2CCN(c3cc4cnn(-c5ccc(F)cc5)c4cc3C)CC23CC3)cn1` [Example 78], 0.07 µM; as for `Cc1cc2c(cnn2-c2ccc(=O)n(C3CC3)c2)cc1C1(Cc2ccccc2)CCN(S(=O)(=O)c2cnn(C)n2)C1` (stereo not shown) [Example 270, 5-(5-(3-benzyl-1-((2-methyl-2H-1,2,3-triazol-4-yl)sulfonyl)pyrrolidin-3-yl)-6-methyl-1H-indazol-1-yl)-1-cyclopropylpyridin-2(1H)-one], 0.6 µM. Same read-out and setting: as for `Cc1cc2c(cnn2-c2ccc(F)cc2)cc1N1C[C@@H]2CN(S(=O)(=O)c3cnn(C)c3)C[C@@H]2C1` [Example 92], the figure is 0.495 µM; as for `Cc1cc2c(cnn2-c2cccc(C#N)c2)cc1C1(Cc2ccccc2)CCN(S(=O)(=O)c2cnn(C)n2)C1` (stereo not shown) [Example 241, 3-(5-(3-benzyl-1-((2-methyl-2H-1,2,3-triazol-4-yl)sulfonyl)pyrrolidin-3-yl)-6-methyl-1H-indazol-1-yl)benzonitrile], 0.044 µM. As to `Cc1cc2c(cnn2-c2ccc(F)cc2)cc1C1(Cc2cncs2)CCN(S(=O)(=O)c2cnn(C)c2)C1` (stereo not shown) [Example 179], in assay [2], affinity was put at a Ki of 0.331 µM. Same read-out and setting: the same measure for `Cc1cc2c(cnn2-c2ccc(=O)n(C)c2)cc1C1(Cc2ccccc2)CCN(S(=O)(=O)c2cn(C)nc2C)C1` (stereo not shown) [Example 282, 5-(5-(3-benzyl-1-((1,3-dimethyl-1H-pyrazol-4-yl)sulfonyl)pyrrolidin-3-yl)-6-methyl-1H-indazol-1-yl)-1-methylpyridin-2(1H)-one]: 0.12 µM. For the compound `CCCn1cc(S(=O)(=O)N2CCC(Cc3ccccc3)(c3ccc4c(cnn4-c4ccc(F)cc4)c3)C2)cn1` (stereo not shown) [Example 159], in assay [2], the Ki was 0.101 µM.

`CCCn1cc(S(=O)(=O)N(C)C2(C)CCN(c3cc4cnn(-c5ccc(F)cc5)c4cc3C)C2)cn1` (stereo not shown) [Example 119] came in with an inhibition constant (Ki) in assay [2] of 0.251 µM. On to `CCCn1cc(S(=O)(=O)N(C)[C@H]2CCN(c3cc4cnn(-c5ccc(F)cc5)c4cc3OC)C2)cn1` [Example 118], for which affinity in assay [2] was put at a Ki of 1.64 µM.
